pIC50: −log10 of the molar value.
Columns and labels:
HCT116 WT cells = test: HCT116 WT cell proliferation / viability (CellTiter-Glo, 6 days); assay type: cell-based; details: Homo sapiens, HCT-116, 144 h, HCT116 WT cells, 6 days, CellTiter-Glo; read-out: HCT-116 WT IC50
Method in brief: (§1)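 CellTiter-Glo luminescence, 6-day exposure, RPMI 1640 + 10% FBS. Dosing: 1:3 series (8-9 pts, top 1 or 10 μM) or 1:2 series (22 pts, top 10 or 50 μM), DMSO control. IC50 = 50% of control via curve fit.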

HCT116 MTAP null cells = test: HCT116 MTAP null cell proliferation / viability (CellTiter-Glo, 6 days); assay type: cell-based; details: HCT116-MTAP null, 144 h, HCT116 MTAP null cells, 6 days, CellTiter-Glo; read-out: HCT-116 MTAP null IC50
Method in brief: as §1

Row | pIC50 (HCT116 WT cells) | pIC50 (HCT116 MTAP null cells) | Structure (SMILES)
1 | 4.49 | 6.23 | CCN(Cc1cnc(C(F)(F)F)cn1)C(=O)c1ccc2nc(N)c3c(c2c1)CO[C@@H]3C [Example 500, (3R)-4-amino-N-ethyl-3-methyl-N-((5-(trifluoromethyl)-2-pyrazinyl)methyl)-1,3-dihydrofuro[3,4-c]quinoline-8-carboxamide]
2 | 4.33 | 5.41 | COc1cc2nc(N)c3c(c2cc1C(=O)N(C)Cc1ccc(C(F)(F)F)cn1)COC3 [Example 502, 4-amino-7-methoxy-N-methyl-N-((5-(trifluoromethyl)-2-pyridinyl)methyl)-1,3-dihydrofuro[3,4-c]quinoline-8-carboxamide]
3 | 5.70 | 7.25 | Cc1cc2nc(N)c3c(c2cc1C(=O)N(C)Cc1ccc(C(F)(F)F)cn1)COC3 [Example 503, 4-amino-N,7-dimethyl-N-((5-(trifluoromethyl)-2-pyridinyl)methyl)-1,3-dihydrofuro[3,4-c]quinoline-8-carboxamide]
4 | 5.73 | 7.25 | Cn1ncc2c3cc(C(=O)N(Cc4ccc(C(F)(F)F)nn4)C4CCC4)c(F)cc3nc(N)c21 [Example 504, 4-amino-N-cyclobutyl-7-fluoro-3-methyl-N-((6-(trifluoromethyl)-3-pyridazinyl)methyl)-3H-pyrazolo[3,4-c]quinoline-8-carboxamide]
5 | 6.43 | 8.05 | Cn1cc(N(Cc2ccc(C(F)(F)F)cn2)C(=O)c2cc3c(cc2F)nc(N)c2c3cnn2C)cn1 [Example 506, 4-amino-7-fluoro-3-methyl-N-(1-methyl-1H-pyrazol-4-yl)-N-((5-(trifluoromethyl)-2-pyridinyl)methyl)-3H-pyrazolo[3,4-c]quinoline-8-carboxamide]
6 | 6.43 | 7.60 | Cn1cc(N(Cc2ccc(C(F)(F)F)cn2)C(=O)c2cc3c(cn2)nc(N)c2cnn(C)c23)cn1 [Example 507, 4-amino-1-methyl-N-(1-methyl-1H-pyrazol-4-yl)-N-((5-(trifluoromethyl)-2-pyridinyl)methyl)-1H-pyrazolo[4,3-c][1,7]naphthyridine-8-carboxamide]
7 | 5.55 | 7.22 | C[C@H](c1ccc(C(F)(F)F)cn1)N(C(=O)c1cc2c(cc1F)nc(N)c1c2cnn1C)C1CC1 [Example 508, 4-amino-N-cyclopropyl-7-fluoro-3-methyl-N-((1R)-1-(5-(trifluoromethyl)-2-pyridinyl)ethyl)-3H-pyrazolo[3,4-c]quinoline-8-carboxamide]
8 | 5.47 | 7.10 | CN(Cc1ccc(S(F)(F)(F)(F)F)cc1)C(=O)c1cc2c(cc1F)nc(N)c1c2cnn1C [Example 515, 4-amino-7-fluoro-N,3-dimethyl-N-(4-(pentafluoro-lambda~6~- sulfanyl)benzyl)-3H-pyrazolo[3,4-c]quinoline-8-carboxamide]
9 | 5.03 | 6.78 | Cc1cc2nc(N)c3cnn(C)c3c2cc1C(=O)N(C)Cc1ccc(F)cn1 [Example 516, 4-amino-N-((5-fluoro-2-pyridinyl)methyl)-N,1,7-trimethyl-1H-pyrazolo[4,3-c]quinoline-8-carboxamide]

The next lines start with the molecule.

Row | Structure (SMILES) | pIC50 (HCT116 WT cells) | pIC50 (HCT116 MTAP null cells)
10 | CC(C)N(Cc1cnc(C(F)(F)F)cn1)C(=O)c1cc2c3c(c(N)nc2cc1F)COC3 [Example 496, 4-amino-7-fluoro-N-(2-propanyl)-N-((5-(trifluoromethyl)-2-pyrazinyl)methyl)-1,3-dihydrofuro[3,4-c]quinoline-8-carboxamide] | 5.65 | 5.90
11 | CCN(Cc1cnc(C(F)(F)F)cn1)C(=O)c1cc2c3c(c(N)nc2cc1F)COC3 [Example 497, 4-amino-N-ethyl-7-fluoro-N-((5-(trifluoromethyl)-2-pyrazinyl)methyl)-1,3-dihydrofuro[3,4-c]quinoline-8-carboxamide] | 5.45 | 6.60
12 | CCN(Cc1cnc(C(F)(F)F)cn1)C(=O)c1cc2c3c(c(N)nc2cc1Cl)COC3 [Example 498, 4-amino-7-chloro-N-ethyl-N-((5-(trifluoromethyl)-2-pyrazinyl)methyl)-1,3-dihydrofuro[3,4-c]quinoline-8-carboxamide] | 4.90 | 6.58
13 | CC(C)N(Cc1cnc(C(F)(F)F)cn1)C(=O)c1cc2c3c(c(N)nc2cc1Cl)COC3 [Example 499, 4-amino-7-chloro-N-(2-propanyl)-N-((5-(trifluoromethyl)-2-pyrazinyl)methyl)-1,3-dihydrofuro[3,4-c]quinoline-8-carboxamide] | 5.38 | 6.79
14 | Nc1nc2cc(F)c(C(=O)N(Cc3ccc(C(F)(F)F)nn3)C3CCC3)cc2c2c1COC2 [Example 501, 4-amino-N-cyclobutyl-7-fluoro-N-((6-(trifluoromethyl)-3-pyridazinyl)methyl)-1,3-dihydrofuro[3,4-c]quinoline-8-carboxamide] | 5.92 | 7.34
15 | Nc1nc2cc(Cl)c(C(=O)N(Cc3ccc(C(F)(F)F)nn3)C3CCC3)cc2c2c1COC2 [Example 505, 4-amino-7-chloro-N-cyclobutyl-N-((6-(trifluoromethyl)-3-pyridazinyl)methyl)-1,3-dihydrofuro[3,4-c]quinoline-8-carboxamide] | 6.18 | 7.66
16 | Nc1nc2cc(F)c(C(=O)N(Cc3ccc(OC(F)F)nn3)C3CCC3)cc2c2c1COC2 [Example 509, 4-amino-N-cyclobutyl-N-((6-(difluoromethoxy)-3-pyridazinyl)methyl)-7-fluoro-1,3-dihydrofuro[3,4-c]quinoline-8-carboxamide] | 6.06 | 7.40
17 | CN(Cc1ccc(S(F)(F)(F)(F)F)cc1)C(=O)c1ccc2nc(N)c3c(c2c1)COC3 [Example 510, 4-amino-N-methyl-N-(4-(pentafluoro-lambda~6~- sulfanyl)benzyl)-1,3-dihydrofuro[3,4-c]quinoline-8-carboxamide] | 5.58 | 7.19
18 | CN(Cc1ccc(S(F)(F)(F)(F)F)cc1)C(=O)c1cc2c3c(c(N)nc2cn1)COC3 [Example 511, 4-amino-N-methyl-N-(4-(pentafluoro-lambda~6~- sulfanyl)benzyl)-1,3-dihydrofuro[3,4-c][1,7]naphthyridine-8-carboxamide] | 5.31 | 6.91
19 | CN(Cc1ccc(S(F)(F)(F)(F)F)cc1)C(=O)c1cc2c3c(c(N)nc2cc1F)COC3 [Example 512, 4-amino-7-fluoro-N-methyl-N-(4-(pentafluoro-lambda~6~- sulfanyl)benzyl)-1,3-dihydrofuro[3,4-c]quinoline-8-carboxamide] | 5.86 | 7.42
20 | CN(Cc1ccc(S(F)(F)(F)(F)F)cc1)C(=O)c1cc2c3c(c(N)nc2cc1Cl)COC3 [Example 513, 4-amino-7-chloro-N-methyl-N-(4-(pentafluoro-lambda~6~- sulfanyl)benzyl)-1,3-dihydrofuro[3,4-c]quinoline-8-carboxamide] | 6.07 | 7.72
21 | C[C@H]1OCc2c1c(N)nc1ccc(C(=O)N(C)Cc3ccc(S(F)(F)(F)(F)F)cc3)cc21 [Example 514, (3R)-4-amino-N,3-dimethyl-N-(4-(pentafluoro-lambda~6~- sulfanyl)benzyl)-1,3-dihydrofuro[3,4-c]quinoline-8-carboxamide] | 5.49 | 7.15

Source: patent US20240101570A1 (AMGEN INC., priority 2020, published 2024)
